# Data published in article PMC2568900 (Biochemistry, 2008).
# Entries after “also recorded” stand apart in the source; their conditions may differ.
# Assays:
# PDHK2-wt = PDHK2-wt (Rattus norvegicus, UniProt Q64536); assay: ATP, ADP and DCA binding by quenching of intrinsic tryptophan fluorescence
# PDHK2-R250A = PDHK2-R250A (Rattus norvegicus, UniProt Q64536, R258A); assay: as above
# PDHK2-T302A [1] = biological target: T1, PDHK2-T302A (Rattus norvegicus, UniProt Q64536, T310A); assay: as above
# PDHK2-Y320F [2] = biological target: T2, PDHK2-Y320F (Rattus norvegicus, UniProt Q64536, Y328F); assay: as above; settings: for Qmax: quenching caused by the varied ligand
# PDHK2-Y320F [3] = biological target: T2, PDHK2-Y320F; assay: Kinase activity assay; type: biochemical; settings: standard phosphorylation assay
# PDHK2-Y320F bound to L2 = assay: GST-L2 pull-down; type: binding, rat; settings: for effect on amount of kinase bound to L2: nucleotide 0.5 mM
# wild-type PDHK2 [4] = biological target: T3, wild-type PDHK2 (Rattus norvegicus, UniProt Q64536); assay: biochemical
# wild-type PDHK2 [5] = biological target: T3, wild-type PDHK2; settings: control, wide range of concentrations
# PDHK2-T302A [6] = biological target: T1, PDHK2-T302A; assay: Isothermal titration calorimetry of L2 binding; settings: ITC, 10 mM ATP
# [7] = biological target: L2 binding to PDHK2-N247Q (Rattus norvegicus, UniProt Q64536, N255Q); assay: GST-L2 pull-down; settings: PDHK2-N247Q (cannot bind nucleotides); nucleotides 10 mM each
# [8] = PDHK2-wt, no fixed ligand, 25 °C
# [9] = PDHK2-wt, fixed ligand DCA (0.5 mM)
smiles,measurement,setting,value
"O=C(O)C(Cl)Cl [DCA, dichloroacetate]",Kd,"PDHK2-wt; Kd, PDHK2-wt, no fixed ligand, 25 °C",226 ± 7 µM
same,Kd,"PDHK2-R250A; Kd, fixed ligand ADP (50 μM)",161 ± 4 µM
same,Kd,"PDHK2-R250A; Kd, fixed ligand ADP (500 μM)",59 ± 1 µM
same,Kd,"PDHK2-R250A; Kd, no fixed ligand, 25 °C",312 ± 25 µM
same,Kd,"PDHK2-T302A [1]; Kd, fixed ligand ADP (50 μM)",249 ± 9 µM
same,Kd,"PDHK2-T302A [1]; Kd, fixed ligand ADP (500 μM)",103 ± 1 µM
same,Kd,"PDHK2-T302A [1]; Kd, no fixed ligand, 25 °C",320 ± 20 µM
same,Kd,"PDHK2-Y320F [2]; Kd, fixed ligand ADP (50 μM)",33 ± 1 µM
same,Kd,"PDHK2-Y320F [2]; Kd, no fixed ligand, 25 °C",292 ± 10 µM
same,Qmax,PDHK2-Y320F [2]; fixed ligand ADP (50 μM),29 ± 1%
same,effect on kinase activity,PDHK2-Y320F [3],neither of the mutant kinases displayed an effect of DCA that would significantly exceed that of sodium acetate; also recorded: did not display an appreciable inhibitory effect; also recorded: no appreciable effect
same,"effect on L2 binding, added alone",PDHK2-Y320F bound to L2; DCA 1 mM alone,"little, if any, influence"
same,"effect on L2 binding, in combination with ATP or ADP",PDHK2-Y320F bound to L2; DCA 1 mM with 0.5 mM ATP or ADP,potentiated the effects of adenine nucleotides
same,IC50,wild-type PDHK2 [4],~690 µM
CC(=O)[O-].[Na+] [sodium acetate],effect on kinase activity,wild-type PDHK2 [5],slight decrease in PDHK2 activity
Nc1ncnc2c1ncn2[C@@H]1O[C@H](COP(=O)(O)OP(=O)(O)OP(=O)(O)O)[C@@H](O)[C@H]1O [ATP],Qmax (extrapolated maximal quenching),"PDHK2-wt; PDHK2-wt, no fixed ligand",37 ± 1%
same,nH (Hill coefficient),"PDHK2-wt; PDHK2-wt, no fixed ligand",1.9 ± 0.1
same,Kd,PDHK2-wt; [8],2.5 ± 0.4 µM
same,decrease in affinity relative to wild-type PDHK2,PDHK2-R250A,> 30 fold
same,Qmax (extrapolated maximal quenching),PDHK2-R250A; no fixed ligand,29 ± 1%
same,nH (Hill coefficient),PDHK2-R250A; no fixed ligand,1.0 ± 0.1
same,Kd,"PDHK2-R250A; no fixed ligand, 25 °C",80 ± 1 µM
same,decrease in affinity relative to wild-type PDHK2,PDHK2-T302A [1],more than 20 fold
same,Qmax (extrapolated maximal quenching),PDHK2-T302A [1]; no fixed ligand,23 ± 1%
same,nH (Hill coefficient),PDHK2-T302A [1]; no fixed ligand,1.5 ± 0.1
same,Kd,"PDHK2-T302A [1]; no fixed ligand, 25 °C",60 ± 1 µM
same,Qmax (extrapolated maximal quenching),PDHK2-Y320F [2]; no fixed ligand,32 ± 1%
same,nH (Hill coefficient),PDHK2-Y320F [2]; no fixed ligand,2.4 ± 0.1
same,Kd,"PDHK2-Y320F [2]; no fixed ligand, 25 °C",1.7 ± 0.1 µM
same,effect on L2 binding,PDHK2-T302A [6],"little, if any, effect"
same,effect on amount of kinase bound to L2,PDHK2-Y320F bound to L2,significant decrease
same,effect on L2 binding,[7],did not exert any nonspecific effects
Nc1ncnc2c1ncn2[C@@H]1O[C@H](COP(=O)(O)OP(=O)(O)O)[C@@H](O)[C@H]1O [ADP],Kd,PDHK2-wt; [9],2 ± 0.1 µM
same,nH,PDHK2-wt; [9],2.2 ± 0.1
same,Qmax,"PDHK2-wt; PDHK2-wt, fixed ligand DCA (0.5 mM), quenching caused by the varied ligand",39 ± 1%
same,Qmax (extrapolated maximal quenching),"PDHK2-wt; PDHK2-wt, no fixed ligand",31 ± 1%
same,nH (Hill coefficient),"PDHK2-wt; PDHK2-wt, no fixed ligand",1.5 ± 0.2
same,Kd,PDHK2-wt; [8],10.6 ± 0.5 µM
same,increase in affinity for ADP in the presence of DCA,"PDHK2-wt; wild-type PDHK2, 0.5 mM DCA",approximately 5 times
same,increase in affinity for ADP by DCA (factor),PDHK2-Y320F [2]; 0.5 mM DCA,3.5
same,Kd,PDHK2-Y320F [2]; fixed ligand DCA (0.5 mM),2.5 ± 0.2 µM
same,nH,PDHK2-Y320F [2]; fixed ligand DCA (0.5 mM),1.9 ± 0.1
same,Qmax,PDHK2-Y320F [2]; fixed ligand DCA (0.5 mM),37 ± 1%
same,Qmax (extrapolated maximal quenching),PDHK2-Y320F [2]; no fixed ligand,24 ± 1%
same,nH (Hill coefficient),PDHK2-Y320F [2]; no fixed ligand,1.4 ± 0.1
same,Kd,"PDHK2-Y320F [2]; no fixed ligand, 25 °C",8.9 ± 0.1 µM
same,effect on amount of kinase bound to L2,PDHK2-Y320F bound to L2,significant decrease
same,effect on L2 binding,[7],did not exert any nonspecific effects
